The values that follow come from patent US6951876B2, “Sulfamoylheteroaryl pyrazole compounds as anti-inflammatory/analgesic agents” (Pfizer, Inc., priority 1999, dated 2005).

Structures are written as SMILES. Structures can show the parent of a compound that is named as a salt.

As for `Cl.NS(=O)(=O)c1ccc(-n2nc(C(F)(F)F)cc2-c2ccc(-c3cncs3)cc2)cn1`, the melting point is 138 °C.

In the case of `Cc1cc(-c2cc(C(F)(F)F)nn2-c2ccc(S(N)(=O)=O)cn2)ccc1-c1cscn1.Cl`, the melting point is 138 to 140 °C. On to `Cl.NS(=O)(=O)c1ccc(-n2nc(C(F)(F)F)c(Cl)c2-c2ccc(-c3cscn3)cc2)cn1`, for which the melting point turned out to be 157 °C. `Cl.NS(=O)(=O)c1ccc(-n2nc(C(F)(F)F)cc2-c2ccc(-c3cscn3)cc2)cn1` gave a melting point of 121 °C. To `CCc1c(-c2ccc(-c3cscn3)cc2)c(C(F)(F)F)nn1-c1ccc(S(N)(=O)=O)nc1.Cl` belongs 141 °C; to `CCc1c(C(F)(F)F)nn(-c2ccc(S(N)(=O)=O)nc2)c1-c1ccc(-c2cncs2)cc1.Cl`, 169 °C; to `Cl.NS(=O)(=O)c1ccc(-n2nc(C(F)(F)F)c(F)c2-c2ccc(-c3cscn3)cc2)cn1`, 145 °C. `NS(=O)(=O)c1ccc(-n2nc(C(F)(F)F)cc2-c2ccc(-c3ccco3)cc2)cn1` (as salt: hydrochloride) [Example 2, 5-[5-[4-(2-Furyl)phenyl]-3-(trifluoromethyl)-1H-pyrazol-1-yl]-2-pyridinesulfonamide] had a melting point of 140 to 170 °C. To `NS(=O)(=O)c1ccc(-n2nc(C(F)(F)F)cc2-c2ccc(-c3ncco3)c(Cl)c2)cn1` (as salt: hydrochloride) [Example 3, 5-[5-[3-Chloro-4-(1,3-oxazol-2-yl)phenyl]-3-(trifluoromethyl)-1H-pyrazol-1-yl]-2-pyridinesulfonamide] belongs 156 °C; to `NS(=O)(=O)c1ccc(-n2nc(C(F)(F)F)c(Cl)c2-c2ccc(-c3cncs3)c(Cl)c2)cn1` (as salt: methanesulfonate) [Example 16, 5-[4-Chloro-5-[3-chloro-4-(1,3-thiazol-5-yl)phenyl]-3-trifluoromethyl-1H-pyrazol-1-yl]-2-pyridinesulfonamide], 191 to 193 °C; to `NS(=O)(=O)c1ccc(-n2nc(C(F)(F)F)cc2-c2ccc(-c3cscn3)c(C(F)(F)F)c2)cn1` [Example 5, 5-{5-[4-(1,3-Thiazol-4-yl)-3-(trifluoromethyl)phenyl]-3-(trifluoromethyl)-1H-pyrazol-1-yl}-2-pyridinesulfonamide], 114 °C.

One may read the melting point as the temperature, or range, at which the solid turns liquid.
